Counter-ions that a name gives are not always drawn.
Tests used:
5HT3 receptor [1] = target: T1, 5HT3 receptor (Rattus norvegicus, UniProt P35563); assay: 5-HT3 binding affinity in rat entorhinal cortex using ^3 H-BRL 43694 (Granisetron); parameters: labelled in the entorhinal cortex of the rat brain; from tissue; host or cells: rat entorhinal cortex
T1 sequence (P35563 24-483): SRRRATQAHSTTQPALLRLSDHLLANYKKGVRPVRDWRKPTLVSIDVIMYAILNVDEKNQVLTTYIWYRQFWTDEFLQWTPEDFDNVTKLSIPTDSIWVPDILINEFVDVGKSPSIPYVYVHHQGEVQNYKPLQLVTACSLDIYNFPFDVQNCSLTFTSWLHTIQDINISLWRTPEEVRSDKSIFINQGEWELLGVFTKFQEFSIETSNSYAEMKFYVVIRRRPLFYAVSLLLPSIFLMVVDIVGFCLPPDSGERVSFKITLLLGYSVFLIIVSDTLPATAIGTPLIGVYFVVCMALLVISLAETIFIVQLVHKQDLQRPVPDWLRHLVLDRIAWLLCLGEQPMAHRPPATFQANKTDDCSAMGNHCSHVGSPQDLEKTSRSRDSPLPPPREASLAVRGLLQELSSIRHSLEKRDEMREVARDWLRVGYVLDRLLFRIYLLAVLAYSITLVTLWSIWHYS
Experimental: The affinity for serotonin 5-HT3 receptor was also assessed for instance in rat entorhinal cortex using the selective radioligand ^3 H-[…] as described by Nelson and Thomas (1989).
Nelson D. R. and Thomas D. R., [^3 H]-BRL 43694 (Granisetron), a specific ligand for 5-HT3 binding sites in rat brain cortical membranes Biochem. Pharmac. 38, 1693-1695, 1989.
The following Table III summarizes the data obtained in this in vitro test for a representative group of compounds of the invention in comparison with the known reference compounds MDL 72222 and Metoclopramide.
5-HT3 binding affinity ^b) for rat entorhinal cortex.
^(b) ^3 […] labelled 5HT3 sites

5HT3 receptor [2] = target: T1, 5HT3 receptor; assay: Inhibition of the binding of ^3 H-GR65630 to 5-HT3 sites in rat entorhinal cortex; parameters: labelled in the entorhinal cortex of the rat brain; from tissue; host or cells: rat entorhinal cortex
From the text: (§1) The following Table II reports the data obtained in this in vitro test for a representative group of compounds of the invention in comparison with the known reference compounds MDL 72222 and Metoclopramide.
(§2) 5-HT3 binding affinity ^(a) for rat entorhinal cortex
(§3) ^(a) [^3 HGR 65630 labelled 5HT3 sites.
(§4) The tested compounds were able to interact with 5-HT3 -serotonin receptors labelled in the entorhinal cortex of the rat brain with ^3 H-GR 65630.

5-HT3 receptor = assay: as above; details: ^3 H-GR 65630, rat entorhinal cortex, low (affinity site), two-site fit
From the text: as §1, §2, §3, §4

5HT3 receptor [3] = target: T1, 5HT3 receptor; assay: Inhibition of the von Bezold-Jarisch chemoreflex evoked by 5-HT (20 μg/kg i.v.) in the anesthetised rat (in vivo 5HT3 antagonist activity); parameters: chemoreflex evoked by 5-HT in the anesthetised rat; from tissue; host or cells: anaesthetised rat in vivo (own knowledge: 5-HT3 receptors on cardiac vagal afferents); details: anesthetized rat; for % Inhibition: mean ± S.E.M.; for ED50: iv, limits in parentheses on the following line
Experimental: Pharmacol. 326, 36-44 (1984).
The following Table I reports the in vivo 5HT3 antagonist activity data obtained in this test for the representative compounds of the invention 2,3,3a,4-tetrahydro-2-(1-azabicyclo [2.2.2]oct-3-yl)-8-chloro-1H-imidazo[5,1-c][1,4]benzoxazin-1-one hydrochloride (internal code FCE 26781);
Inhibition of the Bezold-Jarisch reflex elicited by 5-HT (20
μg/kg i.v.) by i.v. FCE compounds in the anesthetized rat.
Values are mean ± S.E.M. from N animals

[4] = ^3 H-BRL 43694 labelled 5HT3 sites, rat entorhinal cortex, read-out: Ki
[5] = ^3 H-GR 65630, rat entorhinal cortex, high (affinity site), only Ki where one-site fit, read-out: Ki high

SMILES	Ki (5HT3 receptor [1]; [4])	Ki (5HT3 receptor [2])	Ki (5-HT3 receptor)	Ki (5HT3 receptor [1])	% Inhibition (5HT3 receptor [3]; 50 μg/kg i.v., N=6)	% Inhibition (5HT3 receptor [3]; 150 μg/kg i.v., N=6)	% Inhibition (5HT3 receptor [3]; 450 μg/kg i.v., N=6)	ED50 (5HT3 receptor [3])	% Inhibition (5HT3 receptor [3]; 100 μg/kg i.v., N=3-7)	Ki (5HT3 receptor [2]; [5])
CN1C2CCCC1CC(N1CC3COc4ccc(Cl)cc4N3C1=O)C2 (stereo not drawn) [FCE 26785, (endo)-2,3,3a,4-tetrahydro-8-chloro-2-(9-methyl-9-azabicyclo[3.3.1]non-3-yl)-1H-imidazo[5,1-c][1,4]benzoxazin-1-one hydrochloride]	310 nM	9.79 nM	600 nM	–	–	–	–	–	–	–
CN1C2CCC1CC(OC(=O)c1cc(Cl)cc(Cl)c1)C2 (stereo not shown) [MDL 72222, reference compound]	–	–	–	23 nM	–	–	–	–	–	–
Cl.O=C1N(C2CN3CCC2CC3)CC2COc3ccc(Cl)cc3N12 (stereo not shown) [FCE 26781, 2,3,3a,4-tetrahydro-2-(1-azabicyclo [2.2.2]oct-3-yl)-8-chloro-1H-imidazo[5,1-c][1,4]benzoxazin-1-one hydrochloride]	–	2.61 nM	1900 nM	13 nM	29.50 ± 6.34%	50.38 ± 5.45%	90.38 ± 2.80%	0.112 mg/kg	–	–
CCN(CC)CCNC(=O)c1cc(Cl)c(N)cc1OC [Metoclopramide, reference compound]	–	–	–	490 nM	–	–	–	–	–	–
Cl.O=C1N(C2CN3CCC2CC3)CC2COc3ccccc3N12 (stereo not shown) [FCE 26962, 2,3,3a,4-tetrahydro-2-(1-azabicyclo[2.2.2]oct-3-yl)-1H-imidazo [5,1-c][1,4]benzoxazin-1-one hydrochloride]	–	9.74 nM	14000 nM	0.4 nM	–	–	–	0.0263 mg/kg	86.4 ± 1.8%	–
CN1C2CCC1CC(N1CC3COc4ccc(Cl)cc4N3C1=O)C2 (stereo not drawn) [FCE 26783, (endo)-2,3,3a,4-tetrahydro-8-chloro-2-(8-methyl-8-azabicyclo [3.2.1]oct-3-yl)-1H-imidazo[5,1-c][1,4]benzoxazin-1-one hydrochloride]	–	–	–	30 nM	–	–	–	–	30.9 ± 6.0%	400 nM
CN1C2CCC1CC(N1CC3COc4ccccc4N3C1=O)C2 (stereo not drawn) [FCE 26878, (endo)-2,3,3a,4-tetrahydro-2-(8-methyl-8-azabicyclo[3.2.1]oct-3-yl)-1H-imidazo[5,1-c][1,4]benzoxazin-1-one, hydrochloride]	–	70 nM	–	9 nM	–	–	–	0.0138 mg/kg	85.8 ± 1.7%	–
CN1C2CCCC1CC(N1CC3COc4ccccc4N3C1=O)C2 (stereo not drawn) [FCE 26963, (endo)-2,3,3a,4-tetrahydro-2-(9-methyl-9-azabicyclo[3.3.1]non-3-yl)-1H-imidazo[5,1-c][1,4]benzoxazin-1-one hydrochloride]	170 nM	–	72000 nM	–	–	–	–	–	27.1 ± 10.7%	151 nM
